For test [1], the target named is Kallikrein-7 (Homo sapiens, UniProt P49862). Put plainly: Inhibition of thermolysin activated recombinant human C-terminal 10-His tagged KLK7 (E23 to H252 residues) using MOCAc-Arg-Pro-Lys-Pro-Val-Glu-Nva-Trp-Arg-Lys(Dnp)-NH2 as substrate preincubated for 10 mins followed by substrate addition and measured after 30 mins by fluorescence analysis.
In test [2] the target is Kallikrein-7 (Mus musculus, UniProt Q91VE3). Put plainly: Inhibition of enterokinase activated recombinant mouse C-terminal His6-tagged KLK7 (Gln22 to Arg249 residues) using MOCAc-Arg-Pro-Lys-Pro-Val-Glu-Nva-Trp-Arg-Lys(Dnp)-NH2 as substrate preincubated for 10 mins followed by substrate addition and measured after 30 mins by fluorescence analysis.
Chain of Kallikrein-7 (Mus musculus, UniProt Q91VE3) (Q91VE3 whole entry): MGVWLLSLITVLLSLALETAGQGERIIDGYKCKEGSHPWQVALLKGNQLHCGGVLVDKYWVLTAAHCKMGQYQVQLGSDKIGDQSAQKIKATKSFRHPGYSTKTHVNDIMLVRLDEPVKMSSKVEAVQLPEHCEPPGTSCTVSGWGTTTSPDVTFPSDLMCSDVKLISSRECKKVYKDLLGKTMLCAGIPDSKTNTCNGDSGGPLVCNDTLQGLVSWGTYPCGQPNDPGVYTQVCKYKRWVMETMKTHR
In test [3] the target is Kallikrein-7 (Mus musculus) (UniProt Q91VE3). Put plainly: Inhibition of enterokinase activated recombinant mouse C-terminal His6-tagged KLK7 (Gln22 to Arg249 residues) at 100 uM using MOCAc-Arg-Pro-Lys-Pro-Val-Glu-Nva-Trp-Arg-Lys(Dnp)-NH2 as substrate preincubated for 10 mins followed by substrate addition and measured after 30 mins by fluorescence analysis relative to control.
Chain of Kallikrein-7 (Mus musculus) (Q91VE3 whole entry): as above

Chain of Kallikrein-7 (Homo sapiens, UniProt P49862) (P49862 whole entry, the tested form may be a part): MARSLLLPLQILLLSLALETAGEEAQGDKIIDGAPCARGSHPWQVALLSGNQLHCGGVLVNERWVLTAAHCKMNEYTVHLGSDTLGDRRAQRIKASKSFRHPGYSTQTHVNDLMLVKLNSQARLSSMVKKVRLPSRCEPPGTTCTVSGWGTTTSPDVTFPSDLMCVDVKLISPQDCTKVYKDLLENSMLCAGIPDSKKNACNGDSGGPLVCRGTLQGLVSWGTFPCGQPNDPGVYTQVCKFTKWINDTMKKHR

The IC50 is the concentration at which inhibition is half-maximal. Regarding `CC1=NC(c2cn(S(=O)(=O)c3ccccc3C)c3ccc(C)cc23)CN1` (configuration not stated), the results for the IC50 in test [1] and in test [2] were 1 µM and 1.3 µM, respectively. By inhibition is commonly meant how much of the control response was suppressed. As to `CC1=NC(c2cn(S(=O)(=O)c3ccc(Cl)cc3)c3ccc(Br)cc23)CN1` (configuration not stated), the inhibition in test [3] turned out to be 35%. Moreover, in test [1], the half-maximal inhibitory concentration (IC50) stood at 4.7 µM.

For the molecule `CC1=NC(c2cn(S(=O)(=O)c3cccc(Cl)c3)c3ccc(C)cc23)CN1` (configuration not stated), the IC50 in test [1] came out at 30 µM; in test [2], 10 µM. For `CC1=NC(c2cn(S(=O)(=O)c3ccccc3)c3ccc(C)cc23)CN1` (configuration not stated), in that order: 17 µM and 15 µM. With `CC1=NC(c2cn(S(=O)(=O)c3ccc(Cl)cc3)c3ccc(C)cc23)CN1` (configuration not stated), the inhibition in test [3] worked out at 33%. Besides, the IC50 in test [1] was 1.9 µM; in test [2] it was over 100 µM. As for `CC1=NC(c2cn(S(=O)(=O)c3cccc(Cl)c3)c3ccccc23)CN1` (configuration not stated), the inhibition in test [3] is 77%. Moreover, in test [1], the IC50 was over 30 µM.

With `Cc1ccc(S(=O)(=O)n2cc(C3CNC(C4CCCCC4)=N3)c3ccccc32)cc1` (configuration not stated), the IC50 in test [1] is over 100 µM.

Regarding `CC1=NC(c2cn(Cc3ccc(Cl)cc3)c3ccccc23)CN1` (configuration not stated), in test [1], the IC50 was determined as 22 µM. For `CC1=NC(c2cn(S(=O)(=O)c3ccccc3F)c3ccc(C)cc23)CN1` (configuration not stated), the IC50 in test [1] is 4.1 µM; in test [2] it was 6.4 µM. Consider `Cc1ccc(S(=O)(=O)n2cc(C3CNC(C(C)C)=N3)c3ccccc32)cc1` (configuration not stated), for which, in test [1], the IC50 is 70 µM. For the molecule `CC1=NC(c2cn(S(=O)(=O)c3ccccc3C#N)c3ccc(C)cc23)CN1` (configuration not stated), the IC50 stood at 6.7 µM in test [1] and 11 µM in test [2].

As to `CC1=NC(c2cn(S(=O)(=O)c3ccc(Cl)cc3)c3ccccc23)CN1` (configuration not stated), the inhibition in test [3] worked out at 17%. In addition, the IC50 in test [1] was determined as 5.7 µM.

As to `CC1=NC(c2cn(S(=O)(=O)c3cccs3)c3ccc(C)cc23)CN1` (configuration not stated), the IC50 in test [1] is 11 µM; in test [2] it was 22 µM.

As to `CC1=NC(c2cn(S(=O)(=O)c3ccc(C)cc3)c3ccccc23)CN1` (configuration not stated), the inhibition in test [3] worked out at 14%. In test [1], the IC50 was found to be 10 µM.

For `CC1=NC(c2cn(S(C)(=O)=O)c3ccccc23)CN1` (configuration not stated), the IC50 in test [1] is over 100 µM. Consider `CCC1=NC(c2cn(S(=O)(=O)c3ccc(C)cc3)c3ccccc23)CN1` (configuration not stated), for which, in test [1], the IC50 stood at 24 µM. Turning to `CC1=NC(c2cn(S(=O)(=O)c3ccccc3Br)c3ccc(C)cc23)CN1` (configuration not stated), the figures for the IC50 in test [1] and in test [2] were 0.39 µM and 0.4 µM, respectively. For `CC1=NC(c2cn(S(=O)(=O)c3ccccc3Cl)c3ccc(C)cc23)CN1` (configuration not stated), in that order: 1.2 µM and 1.5 µM. As to `CC1=NC(c2cn(S(=O)(=O)c3c(Cl)cccc3Cl)c3ccc(C)cc23)CN1` (configuration not stated), the results for the IC50 in test [1] and in test [2] were 14 µM and 10 µM, respectively. As for `CC1=NC(c2cn(S(=O)(=O)c3ccc(F)cc3)c3ccc(C)cc23)CN1` (configuration not stated), the IC50 was 9.4 µM in test [1] and over 30 µM in test [2].

For the molecule `CC1=NC(c2cn(S(=O)(=O)c3ccc(Cl)cc3)c3ccccc23)CN1C` (configuration not stated), in test [1], the IC50 was over 30 µM.

Values taken from ChEMBL document CHEMBL4371036, “Discovery and structure-activity relationship of imidazolinylindole derivatives as kallikrein 7 inhibitors” (Bioorg Med Chem Lett, 2019).
